From patent US20110091945A1, “METHODS OF INCREASING BIOMASS PRODUCTIVITY, LIPID INDUCTION, AND CONTROLLING METABOLITES IN ALGAE FOR PRODUCTION OF BIOFUELS USING BIOCHEMICAL STIMULANTS” (priority 2009, published 2011)
Where “and” joins values, the source holds several entries; their conditions need not be identical. Identical values can stand only once.

How the values were obtained:
[1] = test system: algae; conditions: applied alone at half solubility in water (75 mg L^−1); cited from earlier work
[2] = test system: Chlorella sorokiniana; assay: Malathion twelve day growth study: biomass and growth rates; type: cell-based, Chlorella sorokiniana (UTEX 2805)
Procedure: • Analysis of growth parameters: Chlorophyll a was estimated following the method of Porra et al., (1989) Biochem. Biophys. Acta 975, 384-394. Biomass estimations were performed by filtering the cultures through pre-dried and weighed Whatman GF/C glass fiber filters (4.7 cm diameter; 1.2 μm pore size). After washing with 0.65 M ammonium formate, filters were then dried at 60° C. overnight and cooled in a desiccant pouch before re-weighing. Specific growth rates, divisions per day, and generation times were estimated based upon biomass data for days 6 to 9 and days 9 to 12 using the following equations:
Specific growth rate (μ, d^−1)=ln(N2/N1)/(t2−t1)
Divisions per day (Div.day^−1)=μ/ln2
Generation time (d)=1/Div.day^−1
Where N1 and N2=biomass at time 1 (t1) and time 2 (t2), respectively.
• Test strain: Chlorella sorokiniana (UTEX 2805) was obtained from UTEX Culture Collections and maintained in BG11 medium (Stanier et al., (1971) Bacteria Rev. 35: 171-205, incorporated herein in its entirety). The pH of culture medium was adjusted to 7.5±0.2 before inoculation and the alga was maintained in a temperature controlled growth chamber at 25±1° C. and 100±10 μmol m^−2 s^−1 light intensity with 12/12 h L/D cycle provided by cool white fluorescent (6500 K) T-8 bulbs. • Pesticide: A twelve day time-scale growth study was conducted to evaluate the effect of pesticide toxicity on algal growth and metabolism. The pesticide malathion (Spectracide, 50% v/v) was used and added to fresh BG11 medium to obtain final concentrations of 70, 140, 280 and 560 mg of malathion L^−1 for the treatments. […] After sterilization, C. sorokiniana was added as inoculum to obtain an initial biomass concentration of 0.075 g L^−1 in all the treatments in triplicates. The cultures were incubated in the growth chamber as explained above. For each sampling period, three randomly chosen flasks of each treatment were removed and then refrigerated at 4° C. until further analysis.

[3] = test system: Nostoc calcicola; conditions: cited from earlier work
[4] = T1, 70 mg malathion L^−1, day 6 to 9
[5] = T1, 70 mg malathion L^−1, day 9 to 12
[6] = T2, 140 mg malathion L^−1, day 6 to 9
[7] = T2, 140 mg malathion L^−1, day 9 to 12

In the case of `CCOC(=O)CC(SP(=S)(OC)OC)C(=O)OCC` (centres unmarked) [malathion, 2-(dimethoxyphosphinothioylthio)butanedioic acid diethyl ester], the “toxicity to algae, in words” value [1] is listed as “toxic to algae”, the “malathion concentration the alga can withstand / tolerated” value [2] is listed as “up to 140 mg L^−1” and the “time within which the alga could metabolize the pesticide and overcome the stress” value ([2]; 70 mg malathion L^−1) is listed as ≤ 6 days. The inhibition in biomass ([2]; 70 mg malathion L^−1, day 3) was 25%, the inhibition in biomass ([2]; 70 mg malathion L^−1, day 6) was 37% and the inhibition in biomass ([2]; 70 mg malathion L^−1, day 9) was 35%. For the same compound, the inhibition in biomass ([2]; 70 mg malathion L^−1, day 12) was 18%, the “time within which the alga could metabolize the pesticide and overcome the stress” value ([2]; 140 mg malathion L^−1) was ≤ 9 days and the inhibition of biomass ([2]; 140 mg malathion L^−1, day 3) was 35%. For the same compound, the inhibition of biomass ([2]; 140 mg malathion L^−1, day 6) was 60%, the inhibition of biomass ([2]; 140 mg malathion L^−1, day 9) was 68% and the inhibition of biomass ([2]; 140 mg malathion L^−1, day 12) was 49%. For the same compound, the “effect on growth of the alga, in words” value ([2]; 270 mg malathion L^−1) was “lethal”, the “effect on growth of the alga, in words” value ([2]; 280 mg malathion L^−1 (T3)) was “lethal” and the inhibition of biomass ([2]; 280 mg malathion L^−1, day 3) was 48%. It also gave an inhibition of biomass ([2]; 280 mg malathion L^−1, day 6) of 78%, an inhibition of biomass ([2]; 280 mg malathion L^−1, day 9) of 89% and an inhibition of biomass ([2]; 280 mg malathion L^−1, day 12) of 100%. The “effect on growth of the alga, in words” value ([2]; 540 mg malathion L^−1) was “lethal”, the “effect on growth of the alga, in words” value ([2]; 560 mg malathion L^−1 (T4)) was “lethal effects” and the Divisions per day [2, 4] was 0.23. The Generation time [2, 4] was 4.4 days, the “Increase in biomass production” value [2, 4] was 1.61 times and the “Specific growth rate (μ)” value [2, 4] was 0.16 day⁻¹. The “Δ Biomass” value [2, 4] was 0.103 g/L, the Divisions per day [2, 5] was 0.27 and the Generation time [2, 5] was 3.7 days. The “Increase in biomass production” value [2, 5] was 1.8 times and 1.76 times, the “Specific growth rate (μ)” value [2, 5] was 0.19 day⁻¹ and the “Δ Biomass” value [2, 5] was 0.206 g/L. The Divisions per day [2, 6] was 0.12, the Generation time [2, 6] was 8.7 days and the “Increase in biomass production” value [2, 6] was 1.27 times. The “Specific growth rate (μ)” value [2, 6] was 0.08 day⁻¹, the “Δ Biomass” value [2, 6] was 0.029 g/L and the Divisions per day [2, 7] was 0.38. The Generation time [2, 7] was 2.6 days, the “Increase in biomass production” value [2, 7] was 2.2 times and 2.20 times and the “Specific growth rate (μ)” value [2, 7] was 0.26 day⁻¹. The “Δ Biomass” value [2, 7] was 0.163 g/L and the “concentration above which growth was reduced” value [3] was “above 500 mg L^−1”.
